The test concerns the target T1, human β3 adrenergic receptor (Homo sapiens, UniProt P13945).
T1 construct: expressed in transfected cells
Put plainly: whole cell receptor coupled c-AMP assay (Emax relative to isoproterenol). Format: cell-based. The following applies: % intrinsic activity: maximal response divided by isoproterenol maximal response times 100; transfected CHO cells; average of at least 3 runs. The source says: The genes encoding the human β1-adrenergic receptor (Frielle et al., Proc. Natl. Acad. Sci., 84:7920–7924, 1987), the human β2-adrenergic receptor (Kobika et al., Proc. Natl. Acad. Sci., 84:46–50, 1987, Emorine et al., Proc. Natl. Acad. Sci., 84:6995–6999, 1987) and the human β3 adrenergic receptor (Granneman et al., Molecular Pharmacology, 44(2):264–70, 1993) are individually subcloned into a phd expression vector (Grinnell et al., Bio/Technology, 5:1189–1192, 1987) and transfected into the DXB-11 Chinese hamster ovary (CHO) cell line by calcium phosphate precipitation methodology. The stably transfected cells are grown to 95% confluency in 95% Dulbecco's modified Eagles Medium (DMEM), 5% fetal bovine serum and 0.01% proline. Media is removed and the cells are washed with phosphate buffered (pH 7.4) saline (without magnesium and calcium). Cells are then lifted using an enzyme free cell dissociation solution (Specialty Media, Lavallette, N.J.) and pelleted by centrifugation.
Cells from each of the above cell lines are resuspended and added (20,000/well) to a 96-well plate. Cells are incubated at 37° C. with representative compounds of the invention for 20 minutes in buffer (Hank's balanced salt solution, 10 mM HEPES, 0.1% BSA, 1 mM L-ascorbic acid, 0.2% dimethyl sulfoxide, 1 mM 3-isobutyl-1-methylxanthine, pH 7.4). After halting the incubation with quench buffer (50 mM Na Acetate, 0.25% Triton X-100, pH 5.8), the c-AMP level is quantified by scintillation proximity assay (SPA) using a modification of the commercially available c-AMP kit (Amersham, Arlington Heights, Ill.) with rabbit anti-cAMP antibody (ICN Biomedicals, Aurora, Ohio) for the kit.
Sigmoidal dose response curves, from the whole cell receptor coupled c-AMP assay are fit to a four parameter logistic equation using non linear regression: y=(a−d)/(1+(Dose/c)^b)+d where a and d are responses at zero and maximal dose, b is the slope factor and c is the EC50 as previously described (DeLean et al., Am. J. Physiol., 235, E97-E102, 1978). EC50 is assessed as the concentration producing 50% of the maximum response to each agonist.
Isoproterenol is accepted in the art as a non-selective β3 agonist and is widely used as a comparator in evaluating the activity of compounds. See Trends in Pharm. Sci., 15:3, 1994. The % intrinsic activity (Emax) of representative compounds of the invention is assessed relative to isoproterenol by the compound's maximal response divided by the isoproterenol maximal response times 100.

Structures are written as SMILES.

T1 sequence (P13945 whole entry): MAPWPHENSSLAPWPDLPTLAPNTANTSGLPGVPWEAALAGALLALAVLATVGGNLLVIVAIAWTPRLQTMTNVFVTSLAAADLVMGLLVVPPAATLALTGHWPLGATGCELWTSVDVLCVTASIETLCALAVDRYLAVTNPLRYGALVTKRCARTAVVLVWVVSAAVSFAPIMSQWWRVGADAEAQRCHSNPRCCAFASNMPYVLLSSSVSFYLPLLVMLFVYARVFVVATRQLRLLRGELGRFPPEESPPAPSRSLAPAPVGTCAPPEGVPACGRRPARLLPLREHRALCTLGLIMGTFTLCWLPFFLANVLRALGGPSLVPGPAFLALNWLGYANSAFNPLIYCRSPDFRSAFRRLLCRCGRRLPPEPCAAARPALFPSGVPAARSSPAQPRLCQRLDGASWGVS

As for `CC(=O)c1ccc(-c2cccc3c(CC(C)(C)NC[C@H](O)COc4ccccc4-c4ccon4)c[nH]c23)cc1` [Example 49], the “Emax (%) ± SEM” value stood at 44.2 ± 1.2%. `CC(=O)c1ccc(-c2cccc3c(CC(C)(C)NC[C@H](O)COc4ccccc4-n4cccc4)c[nH]c23)cc1` [Example 50]: the “Emax (%) ± SEM” value is recorded as 38.4 ± 3.2%.

For the compound `CC(C)(Cc1c[nH]c2ccccc12)NC[C@H](O)COc1ccccc1-c1ccsc1.Cl` [Example 51], the “Emax (%) ± SEM” value is given as 58.3 ± 1.3%.

`CC(C)(Cc1c[nH]c2c(OCC#N)cccc12)NC[C@H](O)COc1ccccc1-c1ccsc1.Cl` [Example 52]: the “Emax (%) ± SEM” value turned out to be 74.0 ± 3.1%. In the case of `CC(C)(Cc1c[nH]c2c(C(=O)O)cccc12)NC[C@H](O)COc1ccccc1-c1ccc(S(N)(=O)=O)s1` [Example 54] it was 79.0 ± 3.5%; in that of `CC(C)(Cc1c[nH]c2cc(C(=O)O)ccc12)NC[C@H](O)COc1ccccc1-c1ccc(S(N)(=O)=O)s1` [Example 55], 78.4 ± 0.2%. For `CC(C)(Cc1c[nH]c2c(C(=O)O)cccc12)NC[C@H](O)COc1ccccc1-c1ccsc1` [Example 61], the “Emax (%) ± SEM” value stood at 56.6 ± 2.7%. The figure for `CC(C)(Cc1c[nH]c2cc(C(=O)O)ccc12)NC[C@H](O)COc1ccccc1-c1ccsc1` [Example 62] is 63.8 ± 0.5%; for `O[C@@H](CNCCn1ccc2ccccc21)COc1ccccc1-c1cccs1` [Example 64] it is 22.2 ± 4.5%.

In the case of `C[C@H](Cn1ccc2ccccc21)NC[C@H](O)COc1ccccc1-c1nccs1` [Example 66], the “Emax (%) ± SEM” value stood at 34.8 ± 3.2%. The figure for `C[C@H](Cn1ccc2ccc(OCC#N)cc21)NC[C@H](O)COc1ccccc1-c1cccs1` [Example 67] is 28.6 ± 3.4%; for `CC(C)(Cc1c[nH]c2ccccc12)NC[C@H](O)COc1ccccc1-c1nccs1` [Example 68] it is 53.2 ± 1.6%. The figure for `COC(=O)c1cccc2[nH]cc(CC(C)(C)NC[C@H](O)COc3ccccc3-c3cccs3)c12` [Example 69] is 39.1 ± 7.1%. `COC(=O)c1ccc2[nH]cc(CC(C)(C)NC[C@H](O)COc3ccccc3-c3cccs3)c2c1` [Example 70]: the “Emax (%) ± SEM” value was determined as 37.3 ± 2.7%.

For the compound `CC(C)(Cc1c[nH]c2ccc(C(N)=O)cc12)NC[C@H](O)COc1ccccc1-c1cccs1` [Example 71], the “Emax (%) ± SEM” value turned out to be 47.4 ± 1.8%.

For `CC(C)(CNC(=O)c1c[nH]c2ccccc12)NC[C@H](O)COc1ccccc1-c1cccs1` [Example 73], the “Emax (%) ± SEM” value stood at 32.1 ± 3.3%. The figure for `CC(C)(Cc1c[nH]c2ccc(C#N)cc12)NC[C@H](O)COc1ccccc1-c1cccs1` [Example 74] is 28.3 ± 2.6%. The figure for `COC(=O)c1ccc2c(CC(C)(C)NC[C@H](O)COc3ccccc3-c3cccs3)c[nH]c2c1` [Example 75] is 47.2 ± 0.3%; for `COC(=O)c1cccc2c(CC(C)(C)NC[C@H](O)COc3ccccc3-c3cccs3)c[nH]c12` [Example 76] it is 67.6 ± 5.2%; for `CC(C)(Cc1c[nH]c2cc(C#N)ccc12)NC[C@H](O)COc1ccccc1-c1cccs1` [Example 77] it is 73.9 ± 1.3%. With `CC(C)(Cc1c[nH]c2cc(C#N)ccc12)NC[C@H](O)COc1ccccc1-c1ccon1` [Example 78], the “Emax (%) ± SEM” value amounted to 58.6 ± 0.9%.

As to `CC(C)(Cc1c[nH]c2ccccc12)NC[C@H](O)COc1ccccc1-c1cscn1` [Example 79], the “Emax (%) ± SEM” value is listed as 58.2 ± 2.3%. The figure for `CC(C)(Cc1c[nH]c2ccccc12)NC[C@H](O)COc1ccc(F)cc1-c1ccon1` [Example 80] is 43.4 ± 2.0%; for `CC(C)(Cc1c[nH]c2ccccc12)NC[C@H](O)COc1ccc(F)cc1-c1ccno1` [Example 81] it is 35.1 ± 2.1%; for `CC(C)(Cc1c[nH]c2ccccc12)NC[C@H](O)COc1ccccc1-c1nncs1` [Example 82] it is 45.5 ± 3.5%. For the compound `CC(C)(Cc1c[nH]c2ccccc12)NC[C@H](O)COc1ccccc1-c1ccns1` [Example 83], the “Emax (%) ± SEM” value is recorded as 73.7 ± 2.0%.

For the origin of these results see patent US7208505B2, “β3 adrenergic agonists” (Eli Lilly and Company, priority 2001, dated 2007).
